{
  "source": "paper PMC7180948",
  "about": "“New Insights into 4-Anilinoquinazolines as Inhibitors of Cardiac Troponin I–Interacting Kinase (TNNi3K)” (Molecules, 2020)",
  "experiment_in_all_cases": "biochemical",
  "set-up_in_all_cases": "KINOMEscan competition binding panel (Eurofins DiscoverX), single concentration, percent inhibition",
  "details_in_all_cases": "read-out: 15 at 1 µM % inhibition",
  "key": {"RIOK1": {"biological_target": "RIOK1 (Homo sapiens, UniProt Q9BRS2)", "summary_of_the_method": "(§1)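 Values come from single-concentration (1 µM) profiling in the Eurofins DiscoverX KINOMEscan competition-binding platform, which covers over 400 kinases.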"}, "TLK2": {"biological_target": "TLK2 (Homo sapiens, UniProt Q86UE8)", "sequence (Q86UE8 whole entry)": "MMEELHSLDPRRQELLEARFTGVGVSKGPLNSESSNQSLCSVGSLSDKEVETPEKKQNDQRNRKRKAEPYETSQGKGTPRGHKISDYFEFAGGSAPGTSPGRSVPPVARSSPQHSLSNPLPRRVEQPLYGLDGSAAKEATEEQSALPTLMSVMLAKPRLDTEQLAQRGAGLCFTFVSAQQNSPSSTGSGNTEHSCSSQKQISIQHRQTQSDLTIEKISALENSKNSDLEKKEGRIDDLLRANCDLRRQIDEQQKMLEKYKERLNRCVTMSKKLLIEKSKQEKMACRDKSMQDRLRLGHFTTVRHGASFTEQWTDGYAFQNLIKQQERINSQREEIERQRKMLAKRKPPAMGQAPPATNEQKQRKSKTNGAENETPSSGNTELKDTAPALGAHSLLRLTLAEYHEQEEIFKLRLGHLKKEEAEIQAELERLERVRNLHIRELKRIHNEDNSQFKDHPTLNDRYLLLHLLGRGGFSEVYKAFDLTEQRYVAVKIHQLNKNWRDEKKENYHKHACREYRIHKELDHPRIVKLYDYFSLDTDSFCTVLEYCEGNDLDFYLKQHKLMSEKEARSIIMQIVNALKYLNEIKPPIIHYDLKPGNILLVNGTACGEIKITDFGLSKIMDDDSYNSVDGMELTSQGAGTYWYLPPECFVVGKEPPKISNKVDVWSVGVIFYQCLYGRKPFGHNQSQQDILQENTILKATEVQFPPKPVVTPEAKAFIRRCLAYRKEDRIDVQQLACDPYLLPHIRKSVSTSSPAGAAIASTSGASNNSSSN", "summary_of_the_method": "as §1"}, "MET": {"biological_target": "MET (Homo sapiens, UniProt P08581)", "sequence (P08581 whole entry)": "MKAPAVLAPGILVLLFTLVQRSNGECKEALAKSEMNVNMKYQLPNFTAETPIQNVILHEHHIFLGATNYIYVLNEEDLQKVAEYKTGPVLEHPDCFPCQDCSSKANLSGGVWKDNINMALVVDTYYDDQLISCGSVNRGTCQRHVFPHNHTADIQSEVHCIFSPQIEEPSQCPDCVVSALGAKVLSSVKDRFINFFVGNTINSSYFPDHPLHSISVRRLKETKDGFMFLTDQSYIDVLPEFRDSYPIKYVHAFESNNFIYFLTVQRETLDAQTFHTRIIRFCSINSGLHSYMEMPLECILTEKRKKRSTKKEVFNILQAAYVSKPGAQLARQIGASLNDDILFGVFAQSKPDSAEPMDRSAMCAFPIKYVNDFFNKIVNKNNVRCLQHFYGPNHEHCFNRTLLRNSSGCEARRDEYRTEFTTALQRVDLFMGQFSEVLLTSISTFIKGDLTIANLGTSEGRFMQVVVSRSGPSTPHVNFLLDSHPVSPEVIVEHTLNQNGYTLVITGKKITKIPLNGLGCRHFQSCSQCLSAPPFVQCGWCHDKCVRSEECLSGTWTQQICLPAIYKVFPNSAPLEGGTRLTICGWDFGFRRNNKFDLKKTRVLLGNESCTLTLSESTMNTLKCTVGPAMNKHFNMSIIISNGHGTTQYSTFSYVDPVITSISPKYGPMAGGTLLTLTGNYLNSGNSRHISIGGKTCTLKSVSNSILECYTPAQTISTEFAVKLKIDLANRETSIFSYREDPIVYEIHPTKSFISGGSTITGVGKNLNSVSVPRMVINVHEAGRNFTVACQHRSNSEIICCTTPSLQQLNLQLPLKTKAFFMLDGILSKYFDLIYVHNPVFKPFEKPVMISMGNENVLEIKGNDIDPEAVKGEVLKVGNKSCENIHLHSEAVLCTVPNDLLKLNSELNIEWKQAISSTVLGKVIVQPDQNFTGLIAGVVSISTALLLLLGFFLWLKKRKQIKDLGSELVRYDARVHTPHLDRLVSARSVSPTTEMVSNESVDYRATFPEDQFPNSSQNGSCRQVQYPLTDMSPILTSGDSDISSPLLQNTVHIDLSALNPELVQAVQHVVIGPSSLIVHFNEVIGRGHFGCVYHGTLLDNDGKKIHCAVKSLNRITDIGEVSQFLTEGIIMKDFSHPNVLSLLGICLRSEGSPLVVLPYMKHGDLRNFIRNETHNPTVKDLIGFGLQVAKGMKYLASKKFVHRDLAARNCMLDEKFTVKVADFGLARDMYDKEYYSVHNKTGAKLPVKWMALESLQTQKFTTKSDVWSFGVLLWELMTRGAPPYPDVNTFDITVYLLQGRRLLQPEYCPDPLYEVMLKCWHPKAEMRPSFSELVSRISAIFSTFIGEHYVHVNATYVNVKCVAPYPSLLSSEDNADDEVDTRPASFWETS", "summary_of_the_method": "as §1"}, "SgK110": {"biological_target": "T1, SgK110 (Homo sapiens, UniProt P0C264)", "T1 construct": "gene SBK3", "summary_of_the_method": "as §1"}, "NEK5": {"biological_target": "NEK5 (Homo sapiens, UniProt Q6P3R8)", "summary_of_the_method": "as §1"}, "AXL": {"biological_target": "AXL (Homo sapiens, UniProt P30530)", "summary_of_the_method": "as §1"}, "LKB1": {"biological_target": "T2, LKB1 (Homo sapiens, UniProt Q15831)", "T2 construct": "gene STK11", "summary_of_the_method": "as §1"}, "PIM3": {"biological_target": "PIM3 (Homo sapiens, UniProt Q86V86)", "summary_of_the_method": "as §1"}, "BIKE": {"biological_target": "T3, BIKE (Homo sapiens, UniProt Q9NSY1)", "T3 construct": "gene BMP2K", "summary_of_the_method": "as §1"}, "[1]": {"biological_target": "T4, ABL1(F317L)-nonphosphorylated (Homo sapiens, UniProt P00519, F317L)", "T4 construct": "nonphosphorylated", "summary_of_the_method": "as §1"}, "PRKR": {"biological_target": "T5, PRKR (Homo sapiens, UniProt P19525)", "T5 construct": "gene EIF2AK2", "summary_of_the_method": "as §1"}, "BLK": {"biological_target": "BLK (Homo sapiens, UniProt P51451)", "summary_of_the_method": "as §1"}, "SRPK1": {"biological_target": "SRPK1 (Homo sapiens, UniProt Q96SB4)", "summary_of_the_method": "as §1"}, "FLT3(ITD)": {"biological_target": "FLT3(ITD) (Homo sapiens, UniProt P36888, ITD)", "summary_of_the_method": "as §1"}, "ERK8": {"biological_target": "T6, ERK8 (Homo sapiens, UniProt Q8TD08)", "T6 construct": "gene MAPK15", "summary_of_the_method": "as §1"}, "CSF1R": {"biological_target": "CSF1R (Homo sapiens, UniProt P07333)", "sequence (P07333 whole entry)": "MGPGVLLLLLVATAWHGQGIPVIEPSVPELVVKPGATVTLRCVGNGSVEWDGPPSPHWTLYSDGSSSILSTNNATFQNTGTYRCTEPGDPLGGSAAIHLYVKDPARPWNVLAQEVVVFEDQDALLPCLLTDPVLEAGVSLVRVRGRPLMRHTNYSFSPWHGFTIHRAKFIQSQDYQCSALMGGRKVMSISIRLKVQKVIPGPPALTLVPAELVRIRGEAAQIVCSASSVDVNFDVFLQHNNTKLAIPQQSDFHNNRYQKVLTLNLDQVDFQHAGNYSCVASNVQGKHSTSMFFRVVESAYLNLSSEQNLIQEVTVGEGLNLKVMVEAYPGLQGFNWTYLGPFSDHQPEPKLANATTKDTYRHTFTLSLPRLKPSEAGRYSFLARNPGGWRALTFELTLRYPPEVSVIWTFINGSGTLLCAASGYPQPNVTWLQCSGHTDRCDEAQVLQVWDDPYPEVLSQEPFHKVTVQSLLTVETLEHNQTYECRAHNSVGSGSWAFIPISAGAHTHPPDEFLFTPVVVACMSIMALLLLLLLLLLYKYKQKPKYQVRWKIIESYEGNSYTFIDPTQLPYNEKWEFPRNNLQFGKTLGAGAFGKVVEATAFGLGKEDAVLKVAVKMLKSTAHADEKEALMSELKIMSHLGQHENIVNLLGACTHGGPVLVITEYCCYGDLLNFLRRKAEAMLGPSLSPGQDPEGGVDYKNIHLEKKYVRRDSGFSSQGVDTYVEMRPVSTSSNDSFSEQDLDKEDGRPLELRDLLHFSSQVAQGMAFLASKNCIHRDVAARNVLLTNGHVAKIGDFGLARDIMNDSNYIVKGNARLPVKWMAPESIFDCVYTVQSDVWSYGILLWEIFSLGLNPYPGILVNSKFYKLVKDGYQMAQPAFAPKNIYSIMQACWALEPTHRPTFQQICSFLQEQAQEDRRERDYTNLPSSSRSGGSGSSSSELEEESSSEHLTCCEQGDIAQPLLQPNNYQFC", "summary_of_the_method": "as §1"}, "VPS34": {"biological_target": "T7, VPS34 (Homo sapiens, UniProt Q8NEB9)", "T7 construct": "gene PIK3C3", "summary_of_the_method": "as §1"}, "ALK": {"biological_target": "ALK (Homo sapiens, UniProt Q9UM73)", "sequence (Q9UM73 whole entry)": "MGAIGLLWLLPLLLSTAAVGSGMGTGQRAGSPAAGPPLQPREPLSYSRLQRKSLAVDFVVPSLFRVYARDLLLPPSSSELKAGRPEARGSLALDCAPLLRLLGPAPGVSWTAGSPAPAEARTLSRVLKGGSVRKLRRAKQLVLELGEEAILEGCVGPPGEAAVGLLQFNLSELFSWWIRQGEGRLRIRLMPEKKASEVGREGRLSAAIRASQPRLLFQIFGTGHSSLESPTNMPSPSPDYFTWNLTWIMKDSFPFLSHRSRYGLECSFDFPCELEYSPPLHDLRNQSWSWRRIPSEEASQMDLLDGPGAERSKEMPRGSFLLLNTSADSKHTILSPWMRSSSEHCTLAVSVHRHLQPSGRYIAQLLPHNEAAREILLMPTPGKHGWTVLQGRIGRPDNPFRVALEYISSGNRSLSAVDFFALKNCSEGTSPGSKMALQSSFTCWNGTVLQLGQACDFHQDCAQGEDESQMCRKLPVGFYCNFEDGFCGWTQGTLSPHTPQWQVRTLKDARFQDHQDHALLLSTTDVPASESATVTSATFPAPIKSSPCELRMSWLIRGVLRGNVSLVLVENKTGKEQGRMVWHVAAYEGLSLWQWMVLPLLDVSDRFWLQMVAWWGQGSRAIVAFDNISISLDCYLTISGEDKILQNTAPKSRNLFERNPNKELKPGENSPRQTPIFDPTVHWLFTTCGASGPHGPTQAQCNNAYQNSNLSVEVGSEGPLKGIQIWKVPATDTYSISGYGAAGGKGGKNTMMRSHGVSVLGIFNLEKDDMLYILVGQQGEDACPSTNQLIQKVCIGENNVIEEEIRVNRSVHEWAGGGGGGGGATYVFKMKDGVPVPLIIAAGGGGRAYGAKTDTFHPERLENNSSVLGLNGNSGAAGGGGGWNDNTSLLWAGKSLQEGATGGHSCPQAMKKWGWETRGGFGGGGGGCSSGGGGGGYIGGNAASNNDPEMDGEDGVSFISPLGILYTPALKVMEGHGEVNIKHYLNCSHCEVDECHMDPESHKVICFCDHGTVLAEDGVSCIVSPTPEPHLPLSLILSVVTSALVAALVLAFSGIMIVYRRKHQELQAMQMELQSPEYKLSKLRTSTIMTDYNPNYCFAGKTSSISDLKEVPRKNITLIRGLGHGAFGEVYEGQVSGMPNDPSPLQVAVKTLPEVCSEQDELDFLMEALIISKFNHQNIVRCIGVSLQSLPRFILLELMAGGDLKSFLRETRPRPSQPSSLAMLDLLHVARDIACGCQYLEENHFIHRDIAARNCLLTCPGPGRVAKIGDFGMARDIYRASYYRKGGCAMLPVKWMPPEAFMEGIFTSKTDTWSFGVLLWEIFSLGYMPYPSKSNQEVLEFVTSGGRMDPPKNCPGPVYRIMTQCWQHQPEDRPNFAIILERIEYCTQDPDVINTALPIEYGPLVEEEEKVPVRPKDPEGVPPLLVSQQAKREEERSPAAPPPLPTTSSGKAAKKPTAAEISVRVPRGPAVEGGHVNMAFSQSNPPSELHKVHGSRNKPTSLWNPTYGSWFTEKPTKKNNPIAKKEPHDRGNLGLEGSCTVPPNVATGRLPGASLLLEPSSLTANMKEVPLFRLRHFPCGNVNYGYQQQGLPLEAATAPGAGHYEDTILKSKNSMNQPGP", "summary_of_the_method": "as §1"}, "SNARK": {"biological_target": "T8, SNARK (Homo sapiens, UniProt Q9H093)", "T8 construct": "gene NUAK2", "summary_of_the_method": "as §1"}, "CLK1": {"biological_target": "CLK1 (Homo sapiens, UniProt P49759)", "summary_of_the_method": "as §1"}, "DYRK2": {"biological_target": "DYRK2 (Homo sapiens, UniProt Q92630)", "summary_of_the_method": "as §1"}, "[2]": {"biological_target": "T9, ABL1(T315I)-phosphorylated (Homo sapiens, UniProt P00519, T315I)", "T9 construct": "phosphorylated", "summary_of_the_method": "as §1"}, "DCAMKL2": {"biological_target": "T10, DCAMKL2 (Homo sapiens, UniProt Q8N568)", "T10 construct": "gene DCLK2", "summary_of_the_method": "as §1"}, "PLK2": {"biological_target": "PLK2 (Homo sapiens, UniProt Q9NYY3)", "summary_of_the_method": "as §1"}},
  "data": [
    {"smiles": "CNS(=O)(=O)c1ccc(N(C)C)c(Nc2nc(C)nc3cc(OC)c(OC)cc23)c1", "note": "[compound 15, 3-((6,7-dimethoxy-2-methylquinazolin-4-yl)amino)-4-(dimethylamino)-N-methylbenzenesulfonamide]", "values": [
      {"measurement": "inhibition at 1 µM", "setting": "RIOK1", "value": 0, "unit": "%"},
      {"measurement": "inhibition at 1 µM", "setting": "TLK2", "value": 0, "unit": "%"},
      {"measurement": "inhibition at 1 µM", "setting": "MET", "value": 0, "unit": "%"},
      {"measurement": "inhibition at 1 µM", "setting": "SgK110", "value": 0, "unit": "%"},
      {"measurement": "inhibition at 1 µM", "setting": "NEK5", "value": 0, "unit": "%"},
      {"measurement": "inhibition at 1 µM", "setting": "AXL", "value": 9, "unit": "%"},
      {"measurement": "inhibition at 1 µM", "setting": "LKB1", "value": 0, "unit": "%"},
      {"measurement": "inhibition at 1 µM", "setting": "PIM3", "value": 3, "unit": "%"},
      {"measurement": "inhibition at 1 µM", "setting": "BIKE", "value": 0, "unit": "%"},
      {"measurement": "inhibition at 1 µM", "setting": "[1]", "value": 33, "unit": "%"},
      {"measurement": "inhibition at 1 µM", "setting": "PRKR", "value": 7, "unit": "%"},
      {"measurement": "inhibition at 1 µM", "setting": "BLK", "value": 0, "unit": "%"},
      {"measurement": "inhibition at 1 µM", "setting": "SRPK1", "value": 0, "unit": "%"},
      {"measurement": "inhibition at 1 µM", "setting": "FLT3(ITD)", "value": 0, "unit": "%"},
      {"measurement": "inhibition at 1 µM", "setting": "ERK8", "value": 0, "unit": "%"},
      {"measurement": "inhibition at 1 µM", "setting": "CSF1R", "value": 0, "unit": "%"},
      {"measurement": "inhibition at 1 µM", "setting": "VPS34", "value": 25, "unit": "%"},
      {"measurement": "inhibition at 1 µM", "setting": "ALK", "value": 10, "unit": "%"},
      {"measurement": "inhibition at 1 µM", "setting": "SNARK", "value": 18, "unit": "%"},
      {"measurement": "inhibition at 1 µM", "setting": "CLK1", "value": 0, "unit": "%"},
      {"measurement": "inhibition at 1 µM", "setting": "DYRK2", "value": 0, "unit": "%"},
      {"measurement": "inhibition at 1 µM", "setting": "[2]", "value": 0, "unit": "%"},
      {"measurement": "inhibition at 1 µM", "setting": "DCAMKL2", "value": 0, "unit": "%"},
      {"measurement": "inhibition at 1 µM", "setting": "PLK2", "value": 23, "unit": "%"}
    ]}
  ]
}
